Results taken from patent US20260232674A1, “METHODS OF TREATING HIDRADENITIS SUPPURATIVA” (Alumis Inc., priority 2023, published 2026).

What was measured:
[1] = tested on: IFN1 gene expression; assay: IFN gene set expression (RNA-sequencing) in healthy volunteers, Compound A versus placebo, day 14; format: in vivo
Description: (§1) A study was conducted to assess IFN1 gene expression in healthy volunteers administered a regimen of Compound A. The data set consists of 48 subjects with transcriptome-wide RNA-sequencing data collected for each subject per time-point. For each subject, time points included a pre-dose at day 1, a pre-dose at day 14, and a 4 hour post-day 14 dose. A Wald test was used to assess the association of the various doses at post-dose day 14 versus placebo. To assess potentially off target effects, a secondary transcriptome-wide analysis was performed. Multiple test correction was completed using a Benjamini-Hochberg cutoff of 0.05 within the primary and secondary analyses separately.
For example FIG. 4 and FIG. 5 show dose-dependent median IFN gene expression levels over time for HERC5, IFI27, IFIT1, RSAD2. […] As shown in FIG. 6 and FIG. 7, SIGLEC1 was decreased after a 14-day regimen of treatment with Compound A.

[2] = IFN gene expression in healthy volunteers after 7 days 40 mg Compound A twice daily versus placebo; format: in vivo; conditions: gene CETP, 40 mg twice daily, versus placebo, healthy volunteers
Description: as §1, with “[…] […]” for “For each subject, time points included a pre-dose at day 1, a pre-dose at day 14, and a 4 hour post-day 14 dose. A Wald test was used to assess the association of the various doses at post-dose day 14 versus placebo.”

[3] = tested on: IFN gene expression; assay: as above; format: in vivo
Description: as §1, with “[…] […]” for “For each subject, time points included a pre-dose at day 1, a pre-dose at day 14, and a 4 hour post-day 14 dose. A Wald test was used to assess the association of the various doses at post-dose day 14 versus placebo.”

[4] = tested on: transcriptome-wide gene expression; assay: Secondary transcriptome-wide analysis for potentially off target effects, day 14 4 hour post-treatment versus placebo; format: in vivo, healthy volunteers
Description: as §1

In the case of [2H]C([2H])([2H])CC(=O)c1cnc(NC(=O)C2CC2)cc1Nc1cccc(-c2ncn(C([2H])([2H])[2H])n2)c1OC [Compound A, N-(4-((2-Methoxy-3-(1-(methyl-d3)-1H-1,2,4-triazol-3-yl)phenyl)amino)-5-(propanoyl-3,3,3-d3)pyridin-2-yl)cyclopropanecarboxamide], the “association of Compound A with SIGLEC1 gene expression (Wald test)” value ([1]; after 14 days of treatment versus placebo, Table 2) was “significant association”, the “median IFN gene expression levels for HERC5, IFI27, IFIT1, RSAD2” value ([1]; after 14 days, versus placebo, FIG. 4 and FIG. 5, healthy volunteers) was “substantial decrease” and the “median gene expression levels for SIGLEC1” value ([1]; after a 14-day regimen, versus placebo, FIG. 6 and FIG. 7, healthy volunteers) was “decreased”. The “log2FoldChange CXCL10” value ([1]; gene CXCL10, after 14 days of treatment versus placebo, healthy volunteers) was −1.589, the “log2FoldChange EPSTI1” value ([1]; gene EPSTI1, after 14 days of treatment versus placebo, healthy volunteers) was −0.2266 and the “log2FoldChange IFI27” value ([1]; gene IFI27, after 14 days of treatment versus placebo, healthy volunteers) was −1.082. For the same compound, the “log2FoldChange IFI44” value ([1]; gene IFI44, after 14 days of treatment versus placebo, healthy volunteers) was −0.3773, the “log2FoldChange IFI44L” value ([1]; gene IFI44L, after 14 days of treatment versus placebo, healthy volunteers) was −1.043 and the “log2FoldChange IFIT1” value ([1]; gene IFIT1, after 14 days of treatment versus placebo, healthy volunteers) was −1.676. For the same compound, the “log2FoldChange ISG15” value ([1]; gene ISG15, after 14 days of treatment versus placebo, healthy volunteers) was −0.8721, the “log2FoldChange ISG20” value ([1]; gene ISG20, after 14 days of treatment versus placebo, healthy volunteers) was 0.08851 and the “log2FoldChange MX1” value ([1]; gene MX1, after 14 days of treatment versus placebo, healthy volunteers) was −1.438. The “log2FoldChange OAS1” value ([1]; gene OAS1, after 14 days of treatment versus placebo, healthy volunteers) was −0.1127, the “log2FoldChange OAS2” value ([1]; gene OAS2, after 14 days of treatment versus placebo, healthy volunteers) was −0.008935 and the “log2FoldChange OAS3” value ([1]; gene OAS3, after 14 days of treatment versus placebo, healthy volunteers) was −0.7134. The “log2FoldChange RSAD2” value ([1]; gene RSAD2, after 14 days of treatment versus placebo, healthy volunteers) was −0.4713, the “log2FoldChange SIGLEC1” value ([1]; gene SIGLEC1, after 14 days of treatment versus placebo, healthy volunteers) was −3.579 and the “log2FoldChange SPATS2L” value ([1]; gene SPATS2L, after 14 days of treatment versus placebo, healthy volunteers) was −0.5117. The “log2FoldChange CETP” value [2] was 1.503, the “rank of SIGLEC1 among differentially expressed genes, treated versus placebo” value ([3]; 40 mg twice daily, Table 3) was “top differentially expressed gene” and the “log2FoldChange CHRM3” value ([3]; gene CHRM3, 40 mg twice daily, versus placebo, healthy volunteers) was −1.521. The “log2FoldChange HJURP” value ([3]; gene HJURP, 40 mg twice daily, versus placebo, healthy volunteers) was 1.007, the “log2FoldChange OSM” value ([3]; gene OSM, 40 mg twice daily, versus placebo, healthy volunteers) was 1.157 and the “log2FoldChange SIGLEC1” value ([3]; gene SIGLEC1, 40 mg twice daily, versus placebo, healthy volunteers) was −3.626. The “log2FoldChange SOCS3” value ([3]; gene SOCS3, 40 mg twice daily, versus placebo, healthy volunteers) was 1.421, the “log2FoldChange SYN2” value ([3]; gene SYN2, 40 mg twice daily, versus placebo, healthy volunteers) was 2.239 and the “log2FoldChange CDNF” value ([4]; gene CDNF, secondary analysis) was 1.185. The “log2FoldChange ENSG00000288643” value ([4]; gene ENSG00000288643, secondary analysis) was −1.541, the “log2FoldChange IFI6” value ([4]; gene IFI6, secondary analysis) was −1.206 and the “log2FoldChange IFIT1” value ([4]; gene IFIT1, secondary analysis) was −1.676. For the same compound, the “log2FoldChange JPH4” value ([4]; gene JPH4, secondary analysis) was −1.043, the “log2FoldChange LRP1” value ([4]; gene LRP1, secondary analysis) was −1.314 and the “log2FoldChange LRRC75B” value ([4]; gene LRRC75B, secondary analysis) was −1.205. For the same compound, the “log2FoldChange MX1” value ([4]; gene MX1, secondary analysis) was −1.438, the “log2FoldChange SIGLEC1” value ([4]; gene SIGLEC1, secondary analysis) was −3.579 and the “off target associations after multiple test corrections” value ([4]; transcriptome-wide, Table 4) was “no significant off target associations”.
